Test: UV/Vis scan of DTT effect on doxorubicin over time
Assay type: physicochemical
Conditions: high concentration of DTT, 17 hours
Experimental: Diothiothreitol (DTT) is a well known mild disulfide reducing agent and is used to maintain disulfide groups in their reduced thiol state. […] A high concentration of DTT was added to doxorubicin and was scanned at 1 hour time points using a UV/Vis spectrophotometer.

COc1cccc2c1C(=O)c1c(O)c3c(c(O)c1C2=O)C[C@@](O)(C(=O)CO)C[C@@H]3O[C@H]1C[C@H](N)[C@H](O)[C@H](C)O1 [doxorubicin]
Change to the absorbance of doxorubicin on exposure to DTT: very little change
